Measured values: BigSolDB 2.1

CC(C(=O)O)c1ccc2c(c1)[nH]c1ccc(Cl)cc12 (stereo not given)
solubility (mole fraction) (in acetic acid, 288.15 K): 0.00687
solubility (mole fraction) (in acetic acid, 293.15 K): 0.00706
solubility (mole fraction) (in acetic acid, 298.15 K): 0.00863
solubility (mole fraction) (in acetic acid, 303.15 K): 0.00998
solubility (mole fraction) (in acetic acid, 308.15 K): 0.0126
solubility (mole fraction) (in acetic acid, 313.15 K): 0.0174
solubility (mole fraction) (in acetic acid, 318.15 K): 0.0216
solubility (mole fraction) (in acetic acid, 323.15 K): 0.0268
solubility (mole fraction) (in ethylene glycol, 288.15 K): 0.00349
solubility (mole fraction) (in ethylene glycol, 293.15 K): 0.00433
solubility (mole fraction) (in ethylene glycol, 298.15 K): 0.00585
solubility (mole fraction) (in ethylene glycol, 303.15 K): 0.00715
solubility (mole fraction) (in ethylene glycol, 308.15 K): 0.00861
solubility (mole fraction) (in ethylene glycol, 313.15 K): 0.0117
solubility (mole fraction) (in ethylene glycol, 318.15 K): 0.0168
solubility (mole fraction) (in ethylene glycol, 323.15 K): 0.0194
solubility (mole fraction) (in formic acid, 288.15 K): 0.000435
solubility (mole fraction) (in formic acid, 293.15 K): 0.000547
solubility (mole fraction) (in formic acid, 298.15 K): 0.00074
solubility (mole fraction) (in formic acid, 303.15 K): 0.00116
solubility (mole fraction) (in formic acid, 308.15 K): 0.00146
solubility (mole fraction) (in formic acid, 313.15 K): 0.00201
solubility (mole fraction) (in formic acid, 318.15 K): 0.00287
solubility (mole fraction) (in formic acid, 323.15 K): 0.00388
solubility (mole fraction) (in glycerin, 288.15 K): 0.000115
solubility (mole fraction) (in glycerin, 293.15 K): 0.000147
solubility (mole fraction) (in glycerin, 298.15 K): 0.000209
solubility (mole fraction) (in glycerin, 303.15 K): 0.000301
solubility (mole fraction) (in glycerin, 308.15 K): 0.000437
solubility (mole fraction) (in glycerin, 313.15 K): 0.00052
solubility (mole fraction) (in glycerin, 318.15 K): 0.000851
solubility (mole fraction) (in glycerin, 323.15 K): 0.00133
solubility (mole fraction) (in isobutanol, 288.15 K): 0.00942
solubility (mole fraction) (in isobutanol, 293.15 K): 0.0103
solubility (mole fraction) (in isobutanol, 298.15 K): 0.0137
solubility (mole fraction) (in isobutanol, 303.15 K): 0.0177
solubility (mole fraction) (in isobutanol, 308.15 K): 0.0243
solubility (mole fraction) (in isobutanol, 313.15 K): 0.0287
solubility (mole fraction) (in isobutanol, 318.15 K): 0.0357
solubility (mole fraction) (in isobutanol, 323.15 K): 0.0432
solubility (mole fraction) (in isopropanol, 288.15 K): 0.0145
solubility (mole fraction) (in isopropanol, 293.15 K): 0.0179
solubility (mole fraction) (in isopropanol, 298.15 K): 0.0267
solubility (mole fraction) (in isopropanol, 303.15 K): 0.031
solubility (mole fraction) (in isopropanol, 308.15 K): 0.0359
solubility (mole fraction) (in isopropanol, 313.15 K): 0.0436
solubility (mole fraction) (in isopropanol, 318.15 K): 0.048
solubility (mole fraction) (in isopropanol, 323.15 K): 0.0601
solubility (mole fraction) (in n-butanol, 288.15 K): 0.014
solubility (mole fraction) (in n-butanol, 293.15 K): 0.0174
solubility (mole fraction) (in n-butanol, 298.15 K): 0.0243
solubility (mole fraction) (in n-butanol, 303.15 K): 0.0283
solubility (mole fraction) (in n-butanol, 308.15 K): 0.0346
solubility (mole fraction) (in n-butanol, 313.15 K): 0.0389
solubility (mole fraction) (in n-butanol, 318.15 K): 0.0441
solubility (mole fraction) (in n-butanol, 323.15 K): 0.0526
solubility (mole fraction) (in n-octanol, 288.15 K): 0.0143
solubility (mole fraction) (in n-octanol, 293.15 K): 0.0177
solubility (mole fraction) (in n-octanol, 298.15 K): 0.0248
solubility (mole fraction) (in n-octanol, 303.15 K): 0.0295
solubility (mole fraction) (in n-octanol, 308.15 K): 0.035
solubility (mole fraction) (in n-octanol, 313.15 K): 0.0391
solubility (mole fraction) (in n-octanol, 318.15 K): 0.0448
solubility (mole fraction) (in n-octanol, 323.15 K): 0.0537
solubility (mole fraction) (in n-propanol, 288.15 K): 0.0157
solubility (mole fraction) (in n-propanol, 293.15 K): 0.0195
solubility (mole fraction) (in n-propanol, 298.15 K): 0.0315
solubility (mole fraction) (in n-propanol, 303.15 K): 0.0378
solubility (mole fraction) (in n-propanol, 308.15 K): 0.0418
solubility (mole fraction) (in n-propanol, 313.15 K): 0.0507
solubility (mole fraction) (in n-propanol, 318.15 K): 0.0598
solubility (mole fraction) (in n-propanol, 323.15 K): 0.0743
solubility (mole fraction) (in propylene glycol, 288.15 K): 0.0055
solubility (mole fraction) (in propylene glycol, 293.15 K): 0.0069
solubility (mole fraction) (in propylene glycol, 298.15 K): 0.00753
solubility (mole fraction) (in propylene glycol, 303.15 K): 0.00936
solubility (mole fraction) (in propylene glycol, 308.15 K): 0.0121
solubility (mole fraction) (in propylene glycol, 313.15 K): 0.0153
solubility (mole fraction) (in propylene glycol, 318.15 K): 0.0183
solubility (mole fraction) (in propylene glycol, 323.15 K): 0.0223
